# Measured values from PMC9090415, “Discovery of small molecule inhibitors of Plasmodium falciparum apicoplast DNA polymerase” (Journal of Enzyme Inhibition and Medicinal Chemistry, 2022).
# Target: P. falciparum apicoplast DNA polymerase (Pf-apPOL) (Plasmodium falciparum, UniProt Q8ILY1)
# Assay: Fluorescence-based high-throughput DNA polymerase assay (molecular beacon), primary screen and dose-response;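 for % inhibition ApPOL 90': test concentration in µM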;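 for % inhibition apPOL 180': test concentration in µM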
# Type: biochemical
# Settings: for DNA Pol: 90 min, 10 µM
# Method in brief: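 Single-point screening used 10 µM compound with 20 nM polymerase, 20 nM hairpin substrate and 6 µM dNTPs for 90 min at 25 °C. Confirmatory titrations (2.5–80 µM) followed fluorescence at three times, and IC50 was derived from a fit including a cooperativity term n.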
# [1] = primary screen value by plate and well
# [2] = primary screen value of the 186 hits, unit not given
# P. falciparum apicoplast DNA polymerase (Pf-apPOL), sequence (Q8ILY1 entry or part of it): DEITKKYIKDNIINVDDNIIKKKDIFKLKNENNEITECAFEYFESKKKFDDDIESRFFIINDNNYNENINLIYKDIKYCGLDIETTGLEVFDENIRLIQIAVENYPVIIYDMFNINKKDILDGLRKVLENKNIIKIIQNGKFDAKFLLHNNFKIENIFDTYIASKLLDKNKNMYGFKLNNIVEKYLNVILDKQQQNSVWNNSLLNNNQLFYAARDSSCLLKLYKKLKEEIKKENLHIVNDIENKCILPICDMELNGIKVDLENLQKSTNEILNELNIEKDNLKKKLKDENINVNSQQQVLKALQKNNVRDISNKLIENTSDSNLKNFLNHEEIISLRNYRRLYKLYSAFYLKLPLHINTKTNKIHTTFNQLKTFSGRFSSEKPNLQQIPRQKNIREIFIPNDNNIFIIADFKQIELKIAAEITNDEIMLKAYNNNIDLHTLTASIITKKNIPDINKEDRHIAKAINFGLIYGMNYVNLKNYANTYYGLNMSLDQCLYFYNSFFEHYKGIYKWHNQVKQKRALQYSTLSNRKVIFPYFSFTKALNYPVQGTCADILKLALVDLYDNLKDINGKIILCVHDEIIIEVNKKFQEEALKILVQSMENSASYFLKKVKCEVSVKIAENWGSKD
structure (smiles),measurement,setting,value
Cc1ccc(NC(=O)Cn2ccc3c(=O)[nH]ccc32)c(C)c1 [KU0205125],DNA Pol,'DNA Pol' of the 186 hits list (screen value),21
same,% inhibition Apo pol 10',"DRC-1, conc 2.5",10.1191%
same,% inhibition Apo pol 10',"DRC-1, conc 5",18.1282%
same,% inhibition Apo pol 10',"DRC-1, conc 10",33.277%
same,% inhibition Apo pol 10',"DRC-1, conc 20",57.4285%
same,% inhibition Apo pol 10',"DRC-1, conc 40",86.5673%
same,% inhibition Apo pol 10',"DRC-1, conc 80",93.6236%
same,% inhibition Apol 90',"DRC-1, conc 2.5",1.128%
same,% inhibition Apol 90',"DRC-1, conc 5",2.856%
same,% inhibition Apol 90',"DRC-1, conc 10",16.2688%
same,% inhibition Apol 90',"DRC-1, conc 20",36.6738%
same,% inhibition Apol 90',"DRC-1, conc 40",74.6586%
same,% inhibition Apol 90',"DRC-1, conc 80",93.7132%
same,% inhibition apPOL 180',"DRC-1, conc 2.5",-4.92%
same,% inhibition apPOL 180',"DRC-1, conc 5",-5.3418%
same,% inhibition apPOL 180',"DRC-1, conc 10",4.52%
same,% inhibition apPOL 180',"DRC-1, conc 20",18.6019%
same,% inhibition apPOL 180',"DRC-1, conc 40",59.9504%
same,% inhibition apPOL 180',"DRC-1, conc 80",92.9849%
same,% inhibition Apo pol 5',"DRC-2, conc 2.5",-2.19%
same,% inhibition Apo pol 5',"DRC-2, conc 5",1.9%
same,% inhibition Apo pol 5',"DRC-2, conc 10",23%
same,% inhibition Apo pol 5',"DRC-2, conc 20",44%
same,% inhibition Apo pol 5',"DRC-2, conc 40",52%
same,% inhibition Apo pol 5',"DRC-2, conc 80",50%
same,% inhibition Apo pol 5',"DRC-2, concentration 20",44%
same,% inhibition Apol 40',"DRC-2, conc 2.5",-3.78%
same,% inhibition Apol 40',"DRC-2, conc 5",-0.571%
same,% inhibition Apol 40',"DRC-2, conc 10",20%
same,% inhibition Apol 40',"DRC-2, conc 20",48%
same,% inhibition Apol 40',"DRC-2, conc 40",70%
same,% inhibition Apol 40',"DRC-2, conc 80",73%
same,% inhibition ApPOL 90',"DRC-2, conc 2.5",-5%
same,% inhibition ApPOL 90',"DRC-2, conc 5",-4%
same,% inhibition ApPOL 90',"DRC-2, conc 10",15%
same,% inhibition ApPOL 90',"DRC-2, conc 20",44%
same,% inhibition ApPOL 90',"DRC-2, conc 40",71%
same,% inhibition ApPOL 90',"DRC-2, conc 80",78%
same,% inhibition ApPOL 90',"DRC-2, concentration 20",44%
same,% inhibition apPOL 180',"DRC-2, conc 2.5",-10%
same,% inhibition apPOL 180',"DRC-2, conc 5",-11%
same,% inhibition apPOL 180',"DRC-2, conc 10",3%
same,% inhibition apPOL 180',"DRC-2, conc 20",30%
same,% inhibition apPOL 180',"DRC-2, conc 40",69%
same,% inhibition apPOL 180',"DRC-2, conc 80",82%
same,DNA Pol,"primary screen value, ""DNA Pol""",21
CC(=O)Nc1cc(C(=O)NC(C)C)c2ccc(C)nc2c1 [KU0206312],% inhibition Apo pol 10',"DRC-1, concentration 2.5",-0.09953%
same,% inhibition Apo pol 10',"DRC-1, concentration 5",7.573%
same,% inhibition Apo pol 10',"DRC-1, concentration 10",27.7087%
same,% inhibition Apo pol 10',"DRC-1, concentration 20",47.6334%
same,% inhibition Apo pol 10',"DRC-1, concentration 40",73.4276%
same,% inhibition Apo pol 10',"DRC-1, concentration 80",85.3418%
same,% inhibition Apol 90',"DRC-1, concentration 2.5",-3.317%
same,% inhibition Apol 90',"DRC-1, concentration 5",-1.224%
same,% inhibition Apol 90',"DRC-1, concentration 10",13.9494%
same,% inhibition Apol 90',"DRC-1, concentration 20",30.2375%
same,% inhibition Apol 90',"DRC-1, concentration 40",59.3171%
same,% inhibition Apol 90',"DRC-1, concentration 80",84.495%
same,% inhibition apPOL 180',"DRC-1, concentration 2.5",-3.391%
same,% inhibition apPOL 180',"DRC-1, concentration 5",-3.035%
same,% inhibition apPOL 180',"DRC-1, concentration 10",6.928%
same,% inhibition apPOL 180',"DRC-1, concentration 20",18.5029%
same,% inhibition apPOL 180',"DRC-1, concentration 40",47.7981%
same,% inhibition apPOL 180',"DRC-1, concentration 80",83.4711%
same,% inhibition Apo pol 5',"DRC-2, concentration 2.5",8%
same,% inhibition Apo pol 5',"DRC-2, concentration 5",15%
same,% inhibition Apo pol 5',"DRC-2, concentration 10",35%
same,% inhibition Apo pol 5',"DRC-2, concentration 20",45%
same,% inhibition Apo pol 5',"DRC-2, concentration 40",47%
same,% inhibition Apo pol 5',"DRC-2, concentration 80",43%
same,% inhibition Apol 40',"DRC-2, concentration 2.5",8%
same,% inhibition Apol 40',"DRC-2, concentration 5",13%
same,% inhibition Apol 40',"DRC-2, concentration 10",34%
same,% inhibition Apol 40',"DRC-2, concentration 20",51%
same,% inhibition Apol 40',"DRC-2, concentration 40",65%
same,% inhibition Apol 40',"DRC-2, concentration 80",67%
same,% inhibition ApPOL 90',"DRC-2, concentration 2.5",6.64%
same,% inhibition ApPOL 90',"DRC-2, concentration 5",11%
same,% inhibition ApPOL 90',"DRC-2, concentration 10",31%
same,% inhibition ApPOL 90',"DRC-2, concentration 20",50%
same,% inhibition ApPOL 90',"DRC-2, concentration 40",68%
same,% inhibition ApPOL 90',"DRC-2, concentration 80",73%
same,% inhibition apPOL 180',"DRC-2, concentration 2.5",2%
same,% inhibition apPOL 180',"DRC-2, concentration 5",5%
same,% inhibition apPOL 180',"DRC-2, concentration 10",20%
same,% inhibition apPOL 180',"DRC-2, concentration 20",41%
same,% inhibition apPOL 180',"DRC-2, concentration 40",67%
same,% inhibition apPOL 180',"DRC-2, concentration 80",78%
same,% inhibition Apo pol 5',"conc. 2.5, DRC-2",8%
same,% inhibition Apol 40',"conc. 2.5, DRC-2",8%
same,% inhibition apPOL 180',"conc. 40, DRC-2",67%
same,% inhibition Apol 40',"conc. 80, DRC-2",67%
same,DNA Pol,[1],32
same,DNA Pol,[2],32
O=C1NCCCn2cc(S(=O)(=O)Nc3ccccc3)cc21 [KU0214835],% inhibition Apo pol 10',"DRC-1, concentration 2.5",3.062%
same,% inhibition Apo pol 10',"DRC-1, concentration 5",6.352%
same,% inhibition Apo pol 10',"DRC-1, concentration 10",23.7327%
same,% inhibition Apo pol 10',"DRC-1, concentration 20",40.9778%
same,% inhibition Apo pol 10',"DRC-1, concentration 40",76.8886%
same,% inhibition Apo pol 10',"DRC-1, concentration 80",90.7287%
same,% inhibition Apol 90',"DRC-1, concentration 2.5",-1.959%
same,% inhibition Apol 90',"DRC-1, concentration 5",-0.5686%
same,% inhibition Apol 90',"DRC-1, concentration 10",11.8703%
same,% inhibition Apol 90',"DRC-1, concentration 20",23.2222%
same,% inhibition Apol 90',"DRC-1, concentration 40",60.7318%
same,% inhibition Apol 90',"DRC-1, concentration 80",88.5247%
same,% inhibition apPOL 180',"DRC-1, concentration 2.5",-6.967%
same,% inhibition apPOL 180',"DRC-1, concentration 5",-5.597%
same,% inhibition apPOL 180',"DRC-1, concentration 10",2.257%
same,% inhibition apPOL 180',"DRC-1, concentration 20",8.277%
same,% inhibition apPOL 180',"DRC-1, concentration 40",41.6614%
same,% inhibition apPOL 180',"DRC-1, concentration 80",83.4683%
same,% inhibition Apo pol 5',"DRC-2, concentration 2.5",5.45%
same,% inhibition Apo pol 5',"DRC-2, concentration 5",8%
same,% inhibition Apo pol 5',"DRC-2, concentration 10",25%
same,% inhibition Apo pol 5',"DRC-2, concentration 20",44%
same,% inhibition Apo pol 5',"DRC-2, concentration 40",53%
same,% inhibition Apo pol 5',"DRC-2, concentration 80",50%
same,% inhibition Apol 40',"DRC-2, concentration 2.5",7%
same,% inhibition Apol 40',"DRC-2, concentration 5",8%
same,% inhibition Apol 40',"DRC-2, concentration 10",24%
same,% inhibition Apol 40',"DRC-2, concentration 20",48%
same,% inhibition Apol 40',"DRC-2, concentration 40",66%
same,% inhibition Apol 40',"DRC-2, concentration 80",70%
same,% inhibition ApPOL 90',"DRC-2, concentration 2.5",5.66%
same,% inhibition ApPOL 90',"DRC-2, concentration 5",7%
same,% inhibition ApPOL 90',"DRC-2, concentration 10",21%
same,% inhibition ApPOL 90',"DRC-2, concentration 20",44%
same,% inhibition ApPOL 90',"DRC-2, concentration 40",66%
same,% inhibition ApPOL 90',"DRC-2, concentration 80",74%
same,% inhibition apPOL 180',"DRC-2, concentration 2.5",2%
same,% inhibition apPOL 180',"DRC-2, concentration 5",3.52%
same,% inhibition apPOL 180',"DRC-2, concentration 10",14%
same,% inhibition apPOL 180',"DRC-2, concentration 20",31%
same,% inhibition apPOL 180',"DRC-2, concentration 40",59%
same,% inhibition apPOL 180',"DRC-2, concentration 80",76%
same,% inhibition Apol 40',"conc. 2.5, DRC-2",7%
same,% inhibition Apo pol 5',"conc. 5, DRC-2",8%
same,% inhibition Apol 40',"conc. 5, DRC-2",8%
same,% inhibition ApPOL 90',"conc. 5, DRC-2",7%
same,% inhibition Apo pol 5',"conc. 20, DRC-2",44%
same,% inhibition ApPOL 90',"conc. 20, DRC-2",44%
same,% inhibition Apol 40',"conc. 40, DRC-2",66%
same,% inhibition ApPOL 90',"conc. 40, DRC-2",66%
same,DNA Pol,[1],21
same,DNA Pol,[2],21
